For test [1], the system named is human gastric cancer cells (SNU-16). As to the kind of experiment: Proliferation inhibition of human gastric cancer cells SNU-16 (CellTiter-Glo). The class given is cell-based. Conditions: 72 h, SNU-16, 3 days. The protocol: (§1) Using the CellTiter-Glo<TM>Live Cell Assay Kit, The inhibitory effect of the test compound on the proliferation of human gastric cancer cells (SNU-16) and FGFR3 high expression and FGFR3 fusion of FGFR3-TACC3 fused human bladder cancer cells (RT4) was determined. Among them, RT4 medium is added with fetal bovine serum and McCoy's 5A medium with a final concentration of 10%.
(§2) Test steps: SNU-16 and RT4 cells that have reached 80% cell confluency were digested by trypsin, centrifuged and re-suspended for counting, and 3500 and 6000 cells/mL of SNU-16 and RT4 cell suspensions were prepared with medium, respectively. Add a 96-well cell culture plate (90 μL/well) and place in a cell culture incubator containing 5% CO2 at 37° C. […] The diluted compound stock solution was further diluted with SNU-16 and RT4 medium and the diluted mixture was transferred to the corresponding cell plates, respectively. […] Mix and centrifuge and then place in a cell culture incubator containing 5% CO2 for 3 days at 37° C. Take out the 96-well cell culture plate and add CellTiterGlo (CTG, Chemiluminescent Cell Viability Assay) reagent (100 L/well. Mix and centrifuge, and then incubate for 10 min at room temperature. After gentle shaking, the absorbance at 450 nm wavelength was determined on the SpectraMax M5 Reader, and the absorbance at 650 nm was used as a reference (i.e., 450 nm absorbance −650 nm absorbance) to calculate the suppression.
(ATP-based viability assays read luminescence as a measure of living cells.)

Test [2] deals with Hep3B cells. As to the kind of experiment: Human hepatoma cell Hep3B survival test (CellTiter-Glo). The class given is cell-based. As to conditions: treated 72 hours, read-out: inhibitory activity on Hep3B cell proliferation IC50. The protocol:
The Hep3B cell line of human liver cancer is derived from ATCC. Cells are supplemented with McCoy's 5A medium and additionally added fetal bovine serum (IOFBS). Cells are kept in the medium at 37° C., humidity at 95%, and carbon dioxide at 500. Hep3B cells were seeded in 96-well plates at a density of 3500 cells per well with a cell suspension volume of 90 μL per well and cultured at 37° C. in a cell culture incubator containing 500 CO2. […] The cells were then placed in a 37° C. incubator and treated with compounds for 72 hours.

Test [3] has as its system human bladder cancer cells (RT4). As to the kind of experiment: Proliferation inhibition of human bladder cancer cells RT4 (CellTiter-Glo). The class given is cell-based. As to conditions: RT4, 3 days. The protocol:
as §1, §2

The target in test [4] is FGFR1 (Homo sapiens, UniProt P11362). As to the kind of experiment: In vitro activity inhibition test for kinase FGFR1.
Experimental: (§3) In Vitro Activity Inhibition Test for Kinases FGFR1, FGFR2, FGFR3 and FGFR4
(§4) The activity of FGFR1, FGFR2, FGFR3 and FGFR4 protein kinases was determined by Caliper mobility shift assay. Perform a 4-fold gradient dilution from a working concentration of 0.2 mM in DMSO, diluting 10 concentrations. Add 2 μL of compound to 78 μL of 1× compound buffer. There were 10 points each for the negative control and the positive control. Shake the board on the rocker for 20 min. […] The final concentration of DMSO was 0.5%.
Test [5] concerns the target FGFR4 (Homo sapiens, UniProt P22455). As to the kind of experiment: In vitro activity inhibition test for kinase FGFR4.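 Note: caliper mobility shift assay of FGFR4 kinase activity, compounds tested as 10-point 4-fold dilution series with 0.5% DMSO final.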
Experimental: as §3, §4
Test [6] deals with FGFR2 (Homo sapiens, UniProt P21802). As to the kind of experiment: In vitro activity inhibition test for kinase FGFR2. The class given is biochemical. As to conditions: kinase assay, 25° C.; read-out: Inhibition of separase IC50 (nM) FGFR2.
In test [7] the target is FGFR3 (Homo sapiens, UniProt P22607). As to the kind of experiment: In vitro activity inhibition test for kinase FGFR3.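 Note: FGFR3 kinase activity read by Caliper mobility shift assay, compounds run as 10-point 4-fold dilution series, final DMSO 0.5%.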
Experimental: as §3, §4

The results in this text go back to patent US20240109896A1, “FGFR KINASE INHIBITOR AND USE THEREOF” (YA THERAPEUTICS INC, priority 2021, published 2024).

Where two headings read alike, the source gives them in different places.

FGFR4, sequence (P22455 22-802): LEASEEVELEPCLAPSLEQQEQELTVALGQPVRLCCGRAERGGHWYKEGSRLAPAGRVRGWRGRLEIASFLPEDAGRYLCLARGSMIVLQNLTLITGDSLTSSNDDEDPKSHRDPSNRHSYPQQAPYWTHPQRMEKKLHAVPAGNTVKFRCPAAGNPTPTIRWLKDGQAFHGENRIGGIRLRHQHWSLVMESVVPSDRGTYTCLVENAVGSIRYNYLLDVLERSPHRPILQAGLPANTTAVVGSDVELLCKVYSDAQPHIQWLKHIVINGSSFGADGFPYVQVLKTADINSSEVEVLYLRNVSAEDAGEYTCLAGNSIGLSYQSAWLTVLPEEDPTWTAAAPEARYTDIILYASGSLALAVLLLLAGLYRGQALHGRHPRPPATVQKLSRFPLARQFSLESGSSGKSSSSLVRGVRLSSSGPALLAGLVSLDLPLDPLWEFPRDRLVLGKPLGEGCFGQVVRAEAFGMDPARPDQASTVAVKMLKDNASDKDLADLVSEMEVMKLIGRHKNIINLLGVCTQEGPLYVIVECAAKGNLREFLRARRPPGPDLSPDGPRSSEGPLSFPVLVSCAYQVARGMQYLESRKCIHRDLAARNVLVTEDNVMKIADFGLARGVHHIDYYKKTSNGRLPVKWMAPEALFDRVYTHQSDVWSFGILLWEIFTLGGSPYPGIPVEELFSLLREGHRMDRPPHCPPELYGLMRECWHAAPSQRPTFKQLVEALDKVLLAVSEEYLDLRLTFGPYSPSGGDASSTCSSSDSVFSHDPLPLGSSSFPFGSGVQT
FGFR2, sequence (P21802 22-821): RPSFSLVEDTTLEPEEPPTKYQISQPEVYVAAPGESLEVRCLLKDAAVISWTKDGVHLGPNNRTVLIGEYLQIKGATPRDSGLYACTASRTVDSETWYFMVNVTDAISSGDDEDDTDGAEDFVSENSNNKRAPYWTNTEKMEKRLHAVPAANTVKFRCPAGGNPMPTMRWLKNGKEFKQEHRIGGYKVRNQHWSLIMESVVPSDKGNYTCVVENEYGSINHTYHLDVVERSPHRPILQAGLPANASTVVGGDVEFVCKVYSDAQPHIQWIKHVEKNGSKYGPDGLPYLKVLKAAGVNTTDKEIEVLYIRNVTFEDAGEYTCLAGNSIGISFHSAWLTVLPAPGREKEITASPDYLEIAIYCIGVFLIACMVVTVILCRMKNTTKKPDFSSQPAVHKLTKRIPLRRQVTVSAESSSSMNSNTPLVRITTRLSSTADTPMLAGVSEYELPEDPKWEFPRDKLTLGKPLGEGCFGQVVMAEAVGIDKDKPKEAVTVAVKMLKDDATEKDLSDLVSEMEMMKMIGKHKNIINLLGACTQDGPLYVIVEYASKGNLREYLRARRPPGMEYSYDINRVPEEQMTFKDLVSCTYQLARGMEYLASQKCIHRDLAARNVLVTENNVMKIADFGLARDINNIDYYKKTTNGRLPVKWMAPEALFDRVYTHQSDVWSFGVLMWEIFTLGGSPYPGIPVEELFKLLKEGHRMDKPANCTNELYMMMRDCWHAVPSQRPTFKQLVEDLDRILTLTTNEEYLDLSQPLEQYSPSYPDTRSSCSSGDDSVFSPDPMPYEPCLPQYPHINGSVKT
FGFR1, sequence (P11362 22-822): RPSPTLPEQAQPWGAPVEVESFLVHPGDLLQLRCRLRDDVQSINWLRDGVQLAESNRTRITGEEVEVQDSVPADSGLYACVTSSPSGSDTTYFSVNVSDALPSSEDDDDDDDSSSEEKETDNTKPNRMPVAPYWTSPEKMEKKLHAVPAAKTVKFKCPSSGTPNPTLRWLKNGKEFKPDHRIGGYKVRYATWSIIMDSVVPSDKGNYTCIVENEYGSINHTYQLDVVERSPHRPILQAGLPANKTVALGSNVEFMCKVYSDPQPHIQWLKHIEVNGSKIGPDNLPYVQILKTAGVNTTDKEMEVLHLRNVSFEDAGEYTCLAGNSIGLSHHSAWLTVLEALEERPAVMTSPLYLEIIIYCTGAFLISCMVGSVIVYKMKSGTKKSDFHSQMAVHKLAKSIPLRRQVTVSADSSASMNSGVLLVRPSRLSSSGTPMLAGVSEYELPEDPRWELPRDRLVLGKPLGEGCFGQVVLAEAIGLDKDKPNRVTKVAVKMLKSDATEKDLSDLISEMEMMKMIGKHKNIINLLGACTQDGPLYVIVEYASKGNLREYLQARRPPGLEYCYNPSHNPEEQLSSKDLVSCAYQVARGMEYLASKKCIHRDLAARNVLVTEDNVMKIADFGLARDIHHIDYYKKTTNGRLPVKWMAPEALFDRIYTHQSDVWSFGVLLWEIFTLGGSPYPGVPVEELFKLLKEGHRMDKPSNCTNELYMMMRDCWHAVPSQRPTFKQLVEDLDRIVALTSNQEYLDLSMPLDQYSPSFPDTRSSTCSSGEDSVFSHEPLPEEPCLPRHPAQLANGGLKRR
FGFR3, sequence (P22607 23-806): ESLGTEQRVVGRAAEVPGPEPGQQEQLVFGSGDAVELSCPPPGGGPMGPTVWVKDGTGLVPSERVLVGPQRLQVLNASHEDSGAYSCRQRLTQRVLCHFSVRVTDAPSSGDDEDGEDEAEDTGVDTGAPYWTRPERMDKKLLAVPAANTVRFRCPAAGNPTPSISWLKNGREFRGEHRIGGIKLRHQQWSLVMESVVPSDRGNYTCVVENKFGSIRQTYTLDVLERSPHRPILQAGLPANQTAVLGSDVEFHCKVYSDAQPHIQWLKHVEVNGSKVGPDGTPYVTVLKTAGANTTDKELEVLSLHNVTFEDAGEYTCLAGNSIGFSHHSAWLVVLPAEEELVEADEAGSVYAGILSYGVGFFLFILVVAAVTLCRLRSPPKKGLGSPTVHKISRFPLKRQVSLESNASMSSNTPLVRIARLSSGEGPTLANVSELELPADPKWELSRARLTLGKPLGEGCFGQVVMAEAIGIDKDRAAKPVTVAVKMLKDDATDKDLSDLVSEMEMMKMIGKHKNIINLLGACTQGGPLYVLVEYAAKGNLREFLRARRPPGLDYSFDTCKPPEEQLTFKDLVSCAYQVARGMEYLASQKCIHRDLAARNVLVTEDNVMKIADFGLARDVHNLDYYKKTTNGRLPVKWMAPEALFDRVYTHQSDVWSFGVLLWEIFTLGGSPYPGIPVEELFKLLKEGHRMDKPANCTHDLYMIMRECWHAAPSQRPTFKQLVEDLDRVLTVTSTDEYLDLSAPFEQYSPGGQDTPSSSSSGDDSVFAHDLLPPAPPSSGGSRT

With `CCN1C(=O)N(c2c(F)c(OC)cc(OC)c2F)Cc2cnc3[nH]c(CN4CCOCC4)cc3c21` [Pemigatinib, reference compound], the IC50 in test [1] is 0.249 nM; in test [2] (Homo sapiens) it was 10 to 100 nM; in test [3] (Homo sapiens, RT-4, 72 h), 6 nM.

For the compound `CCN1CCN(c2ccc(Nc3cc(N(C)C(=O)Nc4c(Cl)c(OC)cc(OC)c4Cl)ncn3)cc2)CC1` [BGJ398, infigratinib, reference compound], the IC50 is 0.572 nM in test [1]; 10 to 100 nM in test [2] (Homo sapiens); 11.8 nM in test [3] (Homo sapiens, RT-4, 72 h).

Turning to `C=CC(=O)N1CC[C@H](n2nc(C#Cc3c(Cl)c(OC)cc(OC)c3Cl)c3c(N)n[nH]c(=O)c32)C1` [Compound 30, (S)-1-(1-acryloylpyrrolidin-3-yl)-4-amino-3-((2,6-dichloro-3,5-dimethoxyphenyl)ethynyl)-1,6-dihydro-7H-pyrazolo[3,4-d]pyridazin-7-one], the IC50 in test [4], in test [5], in test [6], in test [2] (Homo sapiens) and in test [7] was less than 10 nM throughout.

The compound `COc1cc(OC)cc(N(CCNC(C)C)c2ccc3ncc(-c4cnn(C)c4)nc3c2)c1` [Erdafinib] yielded an IC50 in test [3] of 1.8 nM.

With `C=CC(=O)N1CCC[C@H](n2cc(C#Cc3cc(OC)cc(OC)c3)c3c(N)n[nH]c(=O)c32)C1` [Compound 20, (S)-1-(1-acryloylpiperidin-3-yl)-4-amino-3-((3,5-dimethoxyphenyl)ethynyl)-1,6-dihydro-7H-pyrrolo[2,3-d]pyridazin-7-one], the IC50 in test [4], in test [5], in test [6], in test [2] (Homo sapiens) and in test [7] was less than 10 nM each time.

On to “(S)-4-amino-1-(1-(but-2-ynoyl)pyrrolidin-3-yl)-3-((2,6-difluoro-3,5-dimethoxyphenyl)ethynyl)-1,6-dihydro-7H-pyrazolo[3,4-d]pyridazin-7-one [Compound 34]”, for which, in test [2], the IC50 is less than 10 nM.

For `C=CC(=O)N1CCC[C@H](n2nc(C#Cc3cc(OC)cc(OC)c3)c3c(N)n[nH]c(=O)c32)C1` [Compound 24, (S)-1-(1-acryloylpiperidin-3-yl)-4-amino-3-((3,5-dimethoxyphenyl)ethynyl)-1,6-dihydro-7H-pyrazolo[3,4-d]pyridazin-7-one], the IC50 in test [4], in test [5], in test [6], in test [2] (Homo sapiens) and in test [7] was less than 10 nM each time.

As for `C=CC(=O)N1CC[C@H](n2nc(C#Cc3cc(OC)cc(OC)c3)c3c(N)n[nH]c(=O)c32)C1` [Compound 26, (S)-1-(1-acryloylpyrrolidin-3-yl)-4-amino-3-((3,5-dimethoxyphenyl)ethynyl)-1,6-dihydro-7H-pyrazolo[3,4-d]pyridazin-7-one], the IC50 in test [4], in test [5], in test [6], in test [2] (Homo sapiens) and in test [7] was less than 10 nM in each case.

`C=CC(=O)N1CC[C@H](n2cc(C#Cc3cc(OC)cc(OC)c3)c3c(N)n[nH]c(=O)c32)C1` [Compound 22, (S)-1-(1-acryloylpyrrolidin-3-yl)-4-amino-3-((3,5-dimethoxyphenyl)ethynyl)-1,6-dihydro-7H-pyrrolo[2,3-d]pyridazin-7-one]: the IC50 in test [4], in test [5], in test [6], in test [2] (Homo sapiens) and in test [7] was less than 10 nM throughout.

Take `C=CC(=O)N1CC[C@H](n2nc(-c3cc4cc(C)cc(OC)c4s3)c3c(N)n[nH]c(=O)c32)C1` [Compound 36, (S)-1-(1-acryloylpyrrolidin-3-yl)-4-amino-3-(7-methoxy-5-methylbenzo[b]thiophen-2-yl)-1,6-dihydro-7H-pyrazolo[3,4-d]pyridazin-7-one]: the IC50 in test [4], in test [5], in test [6], in test [2] (Homo sapiens) and in test [7] was less than 10 nM in each case.

With `CC#CC(=O)N1CC[C@H](Nc2ncc(Br)c(C#Cc3cc(OC)cc(OC)c3)n2)C1` [Compound 13, (S)-1-(3-((5-bromo-4-((3,5-dimethoxyphenyl)ethynyl)pyrimidin-2-yl)amino)pyrrolidin-1-yl)but-2-yn-1-one], the IC50 in test [4] was 10 to 100 nM; in test [5] it was 100 to 500 nM; in test [6], 10 to 100 nM; in test [7], 10 to 100 nM.

As to `C=CC(=O)N1CC[C@H](Nc2ncc(C#N)c(C#Cc3cc(OC)cc(OC)c3)n2)C1` [Compound 5, (S)-2-((1-acryloylpyrrolidin-3-yl)amino)-4-((3,5-dimethoxyphenyl)ethynyl)pyrimidine-5-carbonitrile], the IC50 in test [4] was in the range of 10 to 100 nM; in test [5] it was 10 to 100 nM; in test [6], 10 to 100 nM; in test [7], 100 to 500 nM.

Take `C=CC(=O)N1CCC(c2nc(N)c(C(N)=O)c(C#Cc3cc(OC)cc(OC)c3)n2)C1` (stereo not drawn) [Compound 18, 2-(1-acryloylpyrrolidin-3-yl)-4-amino-6-((3,5-dimethoxyphenyl)ethynyl)pyrimidine-5-carboxamide]: the IC50 in test [4] is 10 to 100 nM; in test [5] it was less than 10 nM; in test [6], less than 10 nM; in test [7], less than 10 nM.

As for `C=CC(=O)N1CC[C@H](n2cc(-c3cn(C)c4ccccc34)c3c(N)n[nH]c(=O)c32)C1` [Compound 42, (S)-1-(1-acryloylpyrrolidin-3-yl)-4-amino-3-(1-methyl-1H-indol-3-yl)-1,6-dihydro-7H-pyrrolo[2,3-d]pyridazin-7-one], the IC50 in test [4], in test [5], in test [6] and in test [7] was less than 10 nM each time.

For the compound `CC#CC(=O)N1CC[C@H](n2cc(-c3ccc4ccccc4c3)c3c(N)n[nH]c(=O)c32)C1` [Compound 39, (S)-4-amino-1-(1-(but-2-ynoyl)pyrrolidin-3-yl)-3-(naphthalen-2-yl)-1,6-dihydro-7H-pyrrolo[2,3-d]pyridazin-7-one], the IC50 in test [4], in test [5], in test [6] and in test [7] was less than 10 nM throughout.

With `C=CC(=O)N1CC2(CC(Nc3nc(N)c(C(N)=O)c(C#Cc4cc(OC)cc(OC)c4)n3)C2)C1` [Compound 7, 2-((2-acryloyl-2-azaspiro[3.3]heptan-6-yl)amino)-4-amino-6-((3,5-dimethoxyphenyl)ethynyl)pyrimidine-5-carboxamide], the IC50 in test [4], in test [5], in test [6] and in test [7] was 10 to 100 nM each time.

On to `C=CC(=O)N1CCC2(CC(Nc3nc(N)c(C(N)=O)c(C#Cc4cc(OC)cc(OC)c4)n3)C2)C1` (stereo not drawn) [Compound 8, 2-((6-acryloyl-6-azaspiro[3.4]octan-2-yl)amino)-4-amino-6-((3,5-dimethoxyphenyl)ethynyl)pyrimidine-5-carboxamide], for which the IC50 in test [4] is 100 to 500 nM; in test [5], 100 to 500 nM; in test [6] it was 10 to 100 nM; in test [7], 10 to 100 nM.
